US6569809B1, “Package-mix agricultural chemical compositions having improved stability” (Monsanto Company, priority 1999, dated 2003)

How the values were obtained:
[1] = at 20° C.; cited from earlier work
[2] = Solubility of flumioxazin in organic solvents
[3] = Chemical degradation of flumioxazin in contact with aqueous salt solution
[4] = test system: inutade (Polygonum longisetum); experiment: Greenhouse tank-mix study, herbicidal effectiveness (Table 1); format: in vivo; details: glyphosate 2160 g a.e./ha + flumioxazin 0 g/ha
Source text: (§1) Tank-mix studies have shown that addition of a relatively small amount of flumioxazin to glyphosate alleviates both the above-mentioned disadvantages. Data from a tank-mix study in a greenhouse illustrating the benefit of simultaneous application of glyphosate+flumioxazin over a higher rate of glyphosate alone are presented in Table 1. Herbicide rates are given in grams per hectare (g/ha); rates shown for glyphosate (which was applied in this study as the isopropylammonium salt) are expressed as acid equivalent (a.e.). Herbicidal effectiveness is measured as percent inhibition by comparison with untreated plants, based on visual assessment by a technician trained in the art of making such assessments, at four times, namely 3, 7, 20 and 27 days after treatment (DAT). Data are presented for two dicotyledonous weed species, “inutade” (Polygonum longisetum) and “tsuyukusa” (Commelina communis), that are known to tolerate high rates of glyphosate.

[5] = test system: tsuyukusa (Commelina communis); experiment: as above; format: in vivo; details: glyphosate 2160 g a.e./ha + flumioxazin 0 g/ha
Source text: as §1

[6] = Adsorption of glyphosate by colloidal hydrophilic silica (HPLC of supernatant); format: physicochemical; details: 23% a.e. aqueous solution of glyphosate isopropylammonium salt, 20° C., 16 hours
Source text: Where the water-soluble active ingredient is a salt of the herbicide glyphosate, it was initially feared that addition of colloidal hydrophilic silica might reduce herbicidal effectiveness by adsorption of glyphosate to the silica. A test was therefore conducted to determine the degree of adsorption of glyphosate by the highest concentration of colloidal hydrophilic silica likely to be used in a composition of the invention, i.e. 5% by weight, and by even higher concentrations.
The procedure for this test is to add a weighed amount of Aerosil™ COK-84 colloidal hydrophilic silica to a measured volume of glyphosate isopropylammonium salt solution of known concentration (23% a.e. by weight) in a stoppered glass bottle and agitate gently at a temperature of 20° C. for 16 hours. The solution is then centrifuged to deposit the silica, leaving a clear supematant. The supernatant is analyzed for glyphosate by HPLC. The amount of adsorption is calculated from the reduction in glyphosate concentration in the supernatant solution by comparison with the initial concentration.

C#CCN1C(=O)COc2cc(F)c(N3C(=O)C4=C(CCCC4)C3=O)cc21 [flumioxazin, 2-[7-fluoro-3,4-dihydro-3-oxo-4-(2-propynyl)-2H-1,4-benzoxazin-6-yl]-4,5,6,7-tetrahydro-1H-isoindole-1,3(2H)-dione]
specific gravity [1]: 1.51
solubility in organic solvent ([2]; benzyl acetate): rather soluble
solubility in organic solvent ([2]; phenylxylylethane): only very sparingly soluble
rate of chemical degradation ([3]; benzyl acetate as the organic solvent, compared with phenylxylylethane): much more rapid
chemical degradation ([3]; composition of the invention, aqueous phase mono(isopropylammonium) glyphosate pH about 4.5 to about 5, even at elevated temperatures): insignificant
chemical degradation ([3]; exposed to a concentrated aqueous salt solution such as a solution of glyphosate salt for prolonged periods): undergo chemical degradation
rate of degradation ([3]; pH of the aqueous phase raised (addition of a base or dibasic salt of glyphosate)): significant increase

O=C(O)CNCP(=O)(O)O [glyphosate, N-phosphonomethylglycine]
percent inhibition ([4]; 3 DAT): 0%
percent inhibition ([4]; 7 DAT): 0%
percent inhibition ([4]; 20 DAT): 45%
percent inhibition ([4]; 27 DAT): 70%
percent inhibition ([5]; 3 DAT): 0%
percent inhibition ([5]; 7 DAT): 0%
percent inhibition ([5]; 20 DAT): 50%
percent inhibition ([5]; 27 DAT): 62%
glyphosate adsorption ([6]; silica concentration 10%): 12%
glyphosate adsorption ([6]; silica concentration 20%): 40%
